Data set [1] can be described thus: cytotoxicity on HeLa cells. Type of data set: cell-based. Particulars: human, HeLa cells. An outline of the steps:
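K-562 and HeLa seeded at ∼10,000 cells/well; HeLa preincubated 48 h without compound before cytotoxicity testing. 72 h exposure at 37 °C, 5% CO2; K-562 counted by electronic cell analyzer, HUVEC and HeLa glutaraldehyde-fixed, methylene blue-stained, OD 660 nm; GI50 (antiproliferative) and CC50 (cytotoxicity) derived.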

The conditions of data set [2]: pH 7.5.
Procedure: Spectrophotometric titration of 1o or 2o by Cu(II) and Fe(III)
Typically, an aliquot of 250 µl (or 500 µl) of a stock solution (~ 0.89 mM) of 1o or 2o was
dissolved in 2.5 (or 2.0 ml) of a mixed solvent made of 0.2 M sodium hepes buffer at pH 7.5
and DMSO (1:1 v/v) in a 1 cm Hellma optical quartz cell. The absorption spectrophotometric
titrations were carried out by adding microvolumes of a stock solution of the metallic cation (5
mM for Cu(II) or 7.36 mM for Fe(III). Aliquots of 5 µl of the stock metal solution were
successively added to the reaction mixture, and after each addition a UV-visible absorption
spectrum (250 nm < λ < 800 nm) was recorded with an Agilent Cary 5000 spectrophotometer. Special care was taken to ensure that equilibrium was attained after
each addition of the substrate. The association constants KL.M (L = 1o, 2o and M = Fe(III) or
Cu(II)) and the stoichiometry of the species at equilibrium were determined by processing the
spectrophotometric data with the Specfit program. The uncertainties on the log K values are given as 3 with  = standard deviation.
Data set [3] concerns the target haem (FeIIIPPIX, π-π dimer). The data set is described as follows: spectrophotometric titration of haematin π-π dimer. Type of data set: binding. Particulars: absorption spectrophotometric titration, pH 7.5; read-out: Dissociation Constant KD of haematin-drug complex.
Data set [4] concerns Mycobacterium vaccae JMRC:STI:10670. Briefly: agar diffusion inhibition zone test. The format is cell-based. Particulars: 1o, 2o 1,000 µg/ml in DMSO; ciprofloxacin 5 µg/ml; solvent DMSO 13P. As for the experimental part: (§1) The following organisms were tested at the Hans Knöll Institute in Jena, for their susceptibility to the compounds 1o and 2o: Bacillus subtilis JMRC:STI:10880, Staphylococcus aureus JMRC:ST:10760, Escherichia coli JMRC:ST:33699, Pseudomonas aeruginosa JMRC:ST:33772, Pseudomonas aeruginosa JMRC:ST:337721, Staphylococcus aureus JMRC:ST:33793 (multi-resistant), Enterococcus faecalis JMRC:ST:33700 (Vancomycin-resistant), Mycobacterium vaccae JMRC:STI:10670, Sporobolomyces salmonicolor (Basidiomycetes yeast) JMRC:ST:35974, Candida albicans (Ascomycetes yeast) JMRC:STI:25000, Penicillium notatum JMRC:STI:50164.
(§2) The bacteria were propagated in Mueller Hinton Broth (Oxoid)[49]. Yeast was propagated in YPD (yeast extract peptone dextrose): 1% yeast extract, 10 g; 2% peptone, 20 g; 2% agar, 20 g; 2% dextrose (glucose), 20 g; Sigma-Y1375. All bacteria and yeast suspensions were freshly made. The cultures were incubated at 37 °C for 16 h. Afterwards, the bacteria concentration from each culture was determined, and 34 ml of nutrient agar was loaded with 10^7 cells. These cultures were stored at 6-8 °C and could be used for seven days for the preparation of test plates. 34 ml of nutrient agar was liquefied and inoculated with the calculated amount of inoculum bacteria suspension at 48–50 °C, a temperature suitable for vegetative forms of bacteria. The inoculated nutrient media (34 ml each) were immediately poured into the prepared test plates (3 mm layer). With a punching device, 12 holes per test plate were punched out. For inhibiting bacterial growth, ciprofloxacin was used as a reference substance. The test substances were dissolved in distilled water, and 5 μg ml^−1 and 50 μl was added to each bacterial culture. For inhibition of fungal growth, amphotericin B served as the reference substance. The test substances were diluted to 10 μg ml^−1 in DMSO/methanol; 50 μl was added to each culture.
(§3) Configuring the test plate; volumes/punched hole: 50 μl; test solutions/test plate: 1 × 50 μl reference substance. Test plates were cultivated for 18 h at 37 °C. Analysis: Reading the inhibition zones (IZ): As IZ, the zone in which no growth can be determined with the naked eye is measured; the tiniest colonies on the edge of the inhibition zone were therefore not taken into consideration. The diameter (φ) of the IZ is measured in mm. The analysis of IZ φ is carried out internationally with the help of statistic procedures, especially regression analysis. With each test approach, the reference substance was brought along as a control; if there were deviations from allowed IZ φ, the test was repeated.
(§4) The inhibition of bacterial growth was determined using bacterial cultures grown in Müller-Hinton Bouillon, which was configured at barely visible opacity with the McFarland Standard Nr. 0.5, which indicates a bacterial density of 10^8 ml^−1. This bacterial suspension was diluted with Müller-Hinton Bouillon using 2-fold dilution series in the agar diffusion test.
(§5) Analysis: The growth in the inhibition zones around the holes containing active substances is thereby compared with the growth in the growth control (no active substance). Bacterial growth was determined according to four measurements: p=presence of colonies in the inhibition zone, P=presence of many colonies in the inhibition zone, A=indication of inhibition, F=facilitation.

Data set [5] concerns Staphylococcus aureus JMRC:ST:33793 (multi-resistant). Briefly: agar diffusion inhibition zone test. The note with it: 1o, ciprofloxacin 5 µg/ml, solvent DMSO 12P. The format is cell-based. As to the method: as §1, §2, §3, §4, §5
(Agar diffusion results depend on both activity and mobility in agar.)

For data set [6], the system named is Enterococcus faecalis JMRC:ST:33700 (Vancomycin-resistant). Briefly: agar diffusion inhibition zone test. Type of data set: cell-based. The note with it: 1o, ciprofloxacin 5 µg/ml, solvent DMSO 12P. As for the experimental part: as §1, §2, §3, §4, §5
Data set [7] has as its system Escherichia coli JMRC:ST:33699. The data set is described as follows: agar diffusion inhibition zone test. The format is cell-based. Particulars: 1o, 2o 1,000 µg/ml in DMSO; ciprofloxacin 5 µg/ml; solvent DMSO 13P. As for the experimental part:
as §1, §2, §3, §4, §5

Data set [8] relates to Pseudomonas aeruginosa JMRC:ST:33772. Briefly: agar diffusion inhibition zone test. Particulars: 1o, ciprofloxacin 5 µg/ml, solvent DMSO 13P. Type of data set: cell-based. As for the experimental part: as §1, §2, §3, §4, §5
For data set [9], the system named is Sporobolomyces salmonicolor JMRC:ST:35974. Briefly: agar diffusion inhibition zone test. The format is cell-based. Particulars: 1o, 2o 1,000 µg/ml in DMSO; amphotericin B 10 µg/ml; solvent DMSO 20p. As to the method: as §1, §2, §3, §4, §5
Data set [10] deals with Bacillus subtilis JMRC:STI:10880. The data set is described as follows: agar diffusion inhibition zone test. The format is cell-based. Particulars: 1o, ciprofloxacin 5 µg/ml, solvent DMSO 12P. As to the method: as §1, §2, §3, §4, §5
Data set [11] deals with Penicillium notatum JMRC:STI:50164. Briefly: agar diffusion inhibition zone test. The format is cell-based. The note with it: 1o, 2o 1,000 µg/ml in DMSO, amphotericin B 10 µg/ml, solvent DMSO 13p. As to the method: as §1, §2, §3, §4, §5
Data set [12] relates to Pseudomonas aeruginosa JMRC:ST:337721. The data set is described as follows: agar diffusion inhibition zone test. Type of data set: cell-based. Particulars: 1o, ciprofloxacin 5 µg/ml, solvent DMSO 16P. As to the method: as §1, §2, §3, §4, §5
The test system of data set [13] is Staphylococcus aureus JMRC:ST:10760. The data set is described as follows: agar diffusion inhibition zone test. The note with it: 1o, ciprofloxacin 5 µg/ml, solvent DMSO 12P. Type of data set: cell-based. As to the method: as §1, §2, §3, §4, §5
A further data set has as its system P. falciparum strain Dd2. Briefly: 72 h 3H-hypoxanthine incorporation assay, chloroquine-resistant strain. Type of data set: cell-based. The note with it: Plasmodium falciparum.
Data set [14] has as its system P. falciparum (strain 3D7). The data set is described as follows: 72 h 3H-hypoxanthine incorporation assay, asexual blood stages. Type of data set: cell-based, Plasmodium falciparum.
The mark [15] stands for this setting: Plasmodium falciparum, 3D7, 72 h 3H-hypoxanthine incorporation, asexual blood stages, read-out: Antiplasmodial activity IC50 Pf (3D7).

Read-outs that look alike come from different tables or passages of the source. Bounds are passed on as bounds.

Regarding `COc1ccc2c(c1)CCC1C2CC[C@@]2(C)C1CC[C@H]2NCc1cc2ccccc2cc1O` (some centres unmarked) [1o], the CC50 at 72 h in data set [1] is more than 113 µM. Besides, in [2], the “stability constants log KLM of 1:1 complexes” value is listed as 4.1-4.7. In data set [3], the Kd is 3.3 µM. Also, the “inhibition zone diameter, Mycobac. vaccae (M4)” value in data set [4] amounted to 18p. Also, in data set [5] (2o 1,000 µg/ml in DMSO), the “inhibition zone diameter, MRSA Staph. aureus (R9)” value came out at 0 mm. The “inhibition zone diameter, VRSA Enteroc. faecalis (R10)” value in data set [6] (2o 1,000 µg/ml in DMSO) stood at 0 mm. The “inhibition zone diameter, Escherichia coli (B4)” value in [7] is 15P. In addition, in [8] (2o 1,000 µg/ml in DMSO), the “inhibition zone diameter, Pseudomonas aeruginosa JMRC:ST:33772 (B7)” value worked out at 0 mm. In addition, the “inhibition zone diameter, Sporobolo. salmonicolor (H4)” value in data set [9] turned out to be 22p. Also, in data set [10] (2o 1,000 µg/ml in DMSO), the “inhibition zone diameter, Bacillus subtilis (B1)” value worked out at 0 mm. The “inhibition zone diameter, Penicillium notatum (P1)” value in data set [11] is reported as 0 mm. Besides, in data set [12] (2o 1,000 µg/ml in DMSO), the “inhibition zone diameter, Pseudomonas aeruginosa JMRC:ST:337721 (B9)” value came to 0 mm. The “inhibition zone diameter, Staphylococcus aureus (B3)” value in [13] (2o 1,000 µg/ml in DMSO) turned out to be 0 mm. Also, the 50% inhibitory concentration (IC50) in the data set on P. falciparum strain Dd2 is 1 ± 0.9 nM; in data set [14] (72 h 3H-hypoxanthine incorporation, asexual blood stages, read-out: Antiplasmodial activity IC50 Pf (3D7)), 4.1 nM; in data set [14] (setting [15]), approximately 5 nM; in [14] (Plasmodium falciparum, 3D7, chloroquine-sensitive and resistant P. falciparum parasites, read-out: IC50 against intraerythrocytic stages), 1 to 5 nM.

`COc1ccc2c(c1)CCC1C2CC[C@@]2(C)C1CC[C@@H]2NCc1cc2ccccc2cc1O` (some centres unmarked) [2o] registered a CC50 at 72 h in [1] of more than 113 µM. The “stability constants log KLM of 1:1 complexes” value in [2] was 4.1-4.7. In addition, the Kd in data set [3] is 8.3 µM. For the same compound, the “inhibition zone diameter, Mycobac. vaccae (M4)” value in [4] is 17p. The zone of inhibition is 0 mm in data set [5] (Staphylococcus aureus, MRSA, read-out: inhibition zone diameter, MRSA Staph. aureus (R9)); 0 mm in [6] (read-out: inhibition zone diameter, VRSA Enteroc. faecalis (R10)); 0 mm in [8] (Pseudomonas aeruginosa, read-out: inhibition zone diameter, Pseudomonas aeruginosa JMRC:ST:33772 (B7)); 0 mm in data set [10] (Bacillus subtilis, read-out: inhibition zone diameter, Bacillus subtilis (B1)); 0 mm in [12] (Pseudomonas aeruginosa, read-out: inhibition zone diameter, Pseudomonas aeruginosa JMRC:ST:337721 (B9)); 0 mm in data set [13] (Staphylococcus aureus, read-out: inhibition zone diameter, Staphylococcus aureus (B3)). Besides, in data set [7], the “inhibition zone diameter, Escherichia coli (B4)” value is listed as 16P. Besides, in [9], the “inhibition zone diameter, Sporobolo. salmonicolor (H4)” value was 24p. For the same compound, the zone of inhibition at 1000 µg/mL in data set [11] (Penicillium chrysogenum, read-out: inhibition zone diameter, Penicillium notatum (P1)) turned out to be 0 mm. The values for the IC50 (in the data set on P. falciparum strain Dd2; in data set [14] (setting [15])) were 2 ± 1.2 nM and 6.6 nM, respectively.

The term CC50 denotes the concentration at which the toxic effect on the cells reaches its halfway point. Usually Kd stands for the concentration at which binding is half-saturated. What is called IC50 is the concentration that inhibits the measured activity by half.

The record behind these values is article PMC5321741, “Arylmethylamino steroids as antiparasitic agents” (Nature Communications, 2017).
